Entries after “also recorded” stand apart in the source; their conditions may differ. Like-named read-outs stand apart in the source and are kept apart here.
Legend:
[1] = test system: Lichen Sclerosus (LS) lesions; assay: Clinical case: topical imiquimod 5% cream in a patient with penile Lichen Sclerosus; assay type: in vivo, human; details: person; for Side effects / local reaction at treated areas: imiquimod 5% cream every other day, reaction after 2 weeks; for Disappearance of LS lesions: imiquimod 5% cream topically every other day for 2 weeks, assessed two weeks after stopping
From the text: A person presented to our office (MIM) with the main complaint of whitish patches on the penis of 2 months duration associated with occasional pruritus. […] Because of its immunomodulatory effects, treatment of the LS lesions with imiquimod 5% cream was offered to the patient. It was clearly explained to them that this was an off label use of the medication. They began topical application to the affected areas every other day.

[2] = test system: infantile hemangioma (IH); assay: Clinical cases: topical 5% imiquimod cream in 4 patients with infantile hemangioma; assay type: in vivo, human
From the text: The option of topical 5% imiquimod cream at a frequency of three times per week was offered to the parents of 4 patients with IH. In each case this treatment option was found acceptable by both parents, who fully understood that this was an off label use of the medication.
A child presented for consultation with an IH on the frontal scalp (3.0×2.5 cm) that was noticed and enlarged rapidly.
A child presented with a red-grey bulbous, 4.5 cm in diameter IH on the frontal scalp that appeared and grew rapidly. MRI analysis supported the clinical diagnosis of IH. […] The medication at the parent's request was discontinued. […] Imiquimod was restarted and increased to every other day for 6 weeks. […] Therapy was discontinued.
A healthy infant was born with a small reddish, flat IH over the left lower lip that started to grow rapidly. Imiquimod, 5%, cream was applied every other day to the outer lip area only. […] The patient is […] and continues the treatment.
An infant was born with a IH on the right upper eyelid that grew rapidly during their first few months life. An MRI study excluded any involvement of any underling ocular structure. Topical application of imiquimod 5% cream was applied every other day for one month over the entire IH.

[3] = test system: epithelioid hemangioendothelioma (EH); assay: Clinical case: 5% imiquimod topical cream in a patient with epithelioid hemangioendothelioma; assay type: in vivo, human
From the text: EH is a low grade malignant vascular tumor that occurs most commonly in the superficial or deep soft tissues of the body. The patient refused surgery for personal reasons, but acquiesced to the use of 5% imiquimod cream, even though such usage was off label.
A patient developed a nodule on the left cheek that started to grow over the period of 6 months. […] However, they were willing to apply 5% imiquimod topical cream after they were informed of the success of this agent in treatment of some skin cancers and hemangiomas.

IFN-α and TNF-α [4] = details: nude mice; topical 1 and 5% cream; cited from earlier work
IFN-α and TNF-α [5] = details: rats; topical 1 and 5% cream; cited from earlier work
[6] = test system: polyoma virus-induced hemangioendothelioma; details: topical imiquimod; cited from earlier work
[7] = test system: cytokines including IL-2 and IFN-γ; details: as a result of IL-12 production; cited from earlier work

For `CC(C)Cn1cnc2c(N)nc3ccccc3c21` [imiquimod], the “Side effects / local reaction at treated areas” value [1] was “strong reaction at the treated areas with pruritus, burning and intermittently mild pain; also recorded: erythematous, edematous plaques that were well defined and did not extend onto uninvolved skin”, the “Side effects / local reaction at treated areas” value ([1]; listed as Imiquimod) was “minimal side-effects” and the “Disappearance of LS lesions” value [1] was “complete disappearance of the lesions”. The “Disappearance of LS lesions” value ([1]; listed as Imiquimod) was “all the lesions of LS that were treated and developed the reaction had disappeared leaving no signs of any cutaneous change”, the IH lesion response ([2]; Case 1: frontal scalp IH 3.0×2.5 cm, after 4 weeks of thrice weekly application) was “less protuberant” and the Side effects ([2]; Case 1, after 4 weeks of thrice weekly application) was “marked erythema and crusting”. For the same compound, the IH lesion response ([2]; Case 1, after therapy discontinued for 2 weeks) was “marked reduction in the size of the IH”, the Side effects ([2]; Case 1, application every other day for 2 weeks) was “reappearance of inflammation and crusting” and the IH lesion response ([2]; Case 1, follow-up 4 weeks after end of therapy) was “virtually complete clinical regression of the IH with return to normal skin color”. For the same compound, the Recurrence at follow-up ([2]; Case 1, most recent follow-up) was “no recurrence of the lesion”, the Side effects ([2]; Case 2: frontal scalp IH 4.5 cm, after 3 weeks of 3 times weekly) was “marked crusting and erythema” and the IH lesion response ([2]; Case 2, four weeks after the 6 week course) was “near complete regression of the lesion”. The “IH lesion at last follow-up” value ([2]; Case 2, last follow-up) was “the lesion had completely disappeared”, the Side effects ([2]; Case 2, restarted, every other day for 6 weeks) was “recurrence of erythema and crusting” and the “IH lesion course after discontinuation” value ([2]; Case 2, two months after medication discontinued) was “rapid regrowth of the lesion”. The Side effects ([2]; Case 3: IH left lower lip, 5% cream every other day to outer lip area, after 2 weeks) was “marked inflammation and crusting over the lip area”, the “IH lesion response, untreated area” value ([2]; Case 3, inner buccal mucosa (untreated)) was “persisted but had also decreased in size” and the “IH lesion response, treated area” value ([2]; Case 3, outer lip area, after one and a half months of therapy) was “most of the IH over the outer lip area had regressed”. For the same compound, the Side effects ([2]; Case 4: IH right upper eyelid, 5% cream every other day) was “Erythema and crusting developed in two weeks”, the IH lesion response ([2]; Case 4, after one month of application every other day) was “regressed almost to the skin level” and the Neurologic examination ([2]; all patients of the report) was “none showed any adverse effects”. The “Outcome of IH lesions” value ([2]; the other two patients, treatment continuing) was “continue to respond dramatically to treatment”, the “Outcome of IH lesions” value ([2]; the two patients who completed therapy, at least one year of follow up) was “complete disappearance of their lesions with no recurrence at least at one year of follow up” and the Nodule size ([3]; after 2 weeks of application) was “decreased remarkably in size”. The Biopsy histology ([3]; biopsy just before surgery) was “scarring in the central cleared area and some residual tumor with marked inflammation in the peripheral inflamed rim”, the “Lesion course in the interim before surgery” value ([3]; interim before surgery) was “continued to improve in the interim, developing a central cleared area” and the Side effects ([3]; person, 2.5 cm nodule left cheek, after 2 weeks of application) was “erythema and crusting”. For the same compound, the Re-biopsy histology ([3]; re-biopsy after 2 weeks of application) was “persistent hemangioendothelioma but with mild atypia and marked inflammation and fibrosis”, the Surgical specimen histology ([3]; surgical specimen) was “only scarring with no evidence of tumor” and the IFN-α (IFN-α and TNF-α [4]) was “local increase”. The TNF-α (IFN-α and TNF-α [4]) was “local increase”, the IFN-α (IFN-α and TNF-α [5]) was “local increase” and the TNF-α (IFN-α and TNF-α [5]) was “local increase”. The Apoptosis [6] was “increased apoptosis”, the Intratumoral mast cells [6] was “increased intratumoral mast cells” and the TNF-α level [6] was “elevated levels”. The “Tissue inhibitor of metalloproteinases type 1 (TIMP-1) level” value [6] was “elevated levels” and the Cytokine production [7] was “production of other cytokines including IL-2 and IFN-γ”.
